In patent publication US6262116A, “Transcription therapy for cancers” (Sloan-Kettering Institute for Cancer Research, priority 1998, dated 2001):

Assays:
[1] = system: acute promyelocytic leukemia; type: in vivo, human; details: Jan. `98 (first line)
Text: The patient used for clinical study is a person who was diagnosed with acute promyelocytic leukemia in 1994.

[2] = system: PML-retinoic acid receptor-α; test: 3XRARE-Luc reporter transfection assay in 293T cells, PML-RARα; type: cell-based, human
Procedure: (§1) The experiment was performed in medium reconstituted with serum not depleted of endogenous retinoids. Luciferase activity was measured in a scintillation counter and normalized with the internal β-galactosidase standard. […] Note that in panels A and B luciferase activity is expressed by different scales.
(§2) Luciferase activity was normalized with the internal β-galactosidase standard. Values represent the averages of two independent transfections.
(§3) 293T cells and KG1 cells were transfected by calcium phosphate precipitation, and by electroporation as already described^25, and luciferase activity of each sample was normalized against internal control β-galactosidase activity^25.
(§4) Nuclear receptor co-repressors form complexes with histone deacetylases (HDAC1 or 2), resulting in nucleosome assembly and transcriptional repression^15.

[3] = system: PLZF-retinoic acid receptor-α; test: 3XRARE-Luc reporter transfection assay in 293T cells, PLZF-RARα; type: cell-based, human
Procedure: as §1, §2, §3, §4

[4] = system: PLZF-retinoic acid receptor-α bone marrow leukaemic cells; test: Proliferation (3H-thymidine incorporation) of PLZF-RARα bone marrow leukaemic cells; type: cell-based, mouse
Procedure: (§5) Myeloid differentiation was evaluated by performing the nitroblue tetrazolium (NBT) assay, and cell proliferation by measuring DNA synthesis quantitating incorporation of ^3 H-thymidine.
(§6) Differentiation was evaluated performing the nitroblue tetrazolium (NBT) assay and morphological differential count^32. Proliferation of bone marrow cells was evaluated by measuring DNA synthesis quantitating incorporation of ^3 H-thymidine (Amersham). Bone marrow cells were plated at a density of 2×10^6 cells/ml and were pulsed with ^3 H-thymidine at a final concentration of […].

[5] = system: PLZF-retinoic acid receptor-α bone marrow leukaemic cells; test: Myeloid differentiation (NBT assay) of PLZF-RARα bone marrow leukaemic cells; type: cell-based, mouse; details: Trichostatin A alone (5 ng/ml)
Procedure: as §5, §6

NB4 cells [6] = test: NB4 cell proliferation (3H-thymidine incorporation); type: cell-based, human
Procedure: (§7) NB4 cells, a line that stably carries the PML/RAR-α fusion protein of acute promyelocytic leukemia^71, were maintained in RPMI1640 medium, which was supplemented with 10% fetal bovine serum and 1% of penicillin-streptomycin, at 37° C. in 5% CO2 atmosphere. Cultures were established at an initial density of 10^5 cells/ml in the presence or absence of drugs at various concentrations. Cellular proliferation was measured by assessment of ^3 H-thymidine incorporation. Aliquots (180 μl) from each culture were placed into 96-well plates in triplicate after 20 hrs of incubation, and 0.5 μCi of ^3 H-thymidine in 20 μl of medium was added to each well. […] The proportion of cells undergoing apoptosis was determined by Annexin V staining^72. Aliquots (1 ml) from each culture were harvested after 48 hrs incubation and the cells were stained with fluorescein isothiocyanate (FITC)-conjugated Annexin V and propidium iodide, according to the manufacturer's instructions (PharMingen, San Diego, Calif.). Annexin V and propidium iodide positivity were analyzed by flow cytometry (Becton-Dickinson, Mountainview, Calif.). Cell viability was measured after 4 days of incubation by using trypan blue exclusion. Cellular differentiation was evaluated at day 4 of incubation using both an assay for nitroblue tetrazolium (NBT) reduction and expression of CD11b (a cell surface differentiation antigen)^73. Briefly, 10^6 cells were harvested and incubated with 0.1% NBT solution in the presence of 12-o-tetradecanoylphorbol 13-acetate (TPA) (0.1 μg/ml) for 1 hr. The pellet of the mixture was then resuspended with 0.04 M HCl/10% SDS and kept at room temperature for 24 hrs. […] For CD11b expression, 10^6 cells were incubated with FITC-conjugated CD11b monoclonal antibody (PharMingen). A FITC-conjugated isotype was used as background control. Expression of CD11b, including percentage of positive cells and the fluorescence intensity, was determined by using flow cytometry (Becton Dickinson).

NB4 cells [7] = test: NB4 cell apoptosis (Annexin V flow cytometry); type: cell-based, human
Procedure: as §7

NB4 cells [8] = test: NB4 cell differentiation (CD11b expression and NBT reduction); type: cell-based, human
Procedure: as §7

NB4 cells [9] = test: NB4 cell viability (trypan blue exclusion); type: cell-based, human; details: phenylbutyrate 10 mM, 4 days of culture
Procedure: NB4 cells, a line that stably carries the PML/RAR-α fusion protein of acute promyelocytic leukemia^71, were maintained in RPMI1640 medium, which was supplemented with 10% fetal bovine serum and 1% of penicillin-streptomycin, at 37° C. in 5% CO2 atmosphere. Cultures were established at an initial density of 10^5 cells/ml in the presence or absence of drugs at various concentrations. Cellular proliferation was measured by assessment of ^3 H-thymidine incorporation. Aliquots (180 μl) from each culture were placed into 96-well plates in triplicate after 20 hrs of incubation, and 0.5 μCi of ^3 H-thymidine in 20 μl of medium was added to each well. […] The proportion of cells undergoing apoptosis was determined by Annexin V staining^72. […] Annexin V and propidium iodide positivity were analyzed by flow cytometry (Becton-Dickinson, Mountainview, Calif.). Cell viability was measured after 4 days of incubation by using trypan blue exclusion. Cellular differentiation was evaluated at day 4 of incubation using both an assay for nitroblue tetrazolium (NBT) reduction and expression of CD11b (a cell surface differentiation antigen)^73. […] The optical density was measured at 540 nm. […] Expression of CD11b, including percentage of positive cells and the fluorescence intensity, was determined by using flow cytometry (Becton Dickinson).

[10] = Plasma concentrations of phenylbutyrate during clinical infusion; type: in vivo, human
Text: During the post-remission treatment course, blood specimens collected on heparin were serially obtained before and 2, 4, and 6 hrs following a 2-hour infusion of phenylbutyrate for determination of histone acetylation levels in leukocytes.

[11] = system: acetylated histones H3 and H4; test: Histone hyperacetylation in patient's blood and bone marrow mononuclear cells (Western, immunofluorescence); type: in vivo, human
Procedure: Hyperacetylation was detected using antiacetylated H3 or H4 antibodies reacting with histones that were acid-extracted from nucleated cells in peripheral blood before (lane 1) and 2, 4 and 6 hours (lanes 2 to 4) after initiation of the phenylbutyrate infusion, and from bone marrow before (lane 5) and after (lane 6) completion of the infusion. The parallel gel stained with Coomassie blue is a loading control.
Mononuclear cells from the patient's blood and bone marrow were isolated by density centrifugation and were applied on slides by cytospin. The slides were fixed in 95% ethanol/5% acetic acid for 1 min, permeabilized and blocked in 10% goat serum/1% BSA/0.3% Triton X-100/PBS for 40 min. The slides were then incubated with anti-acetylated histone H4 antibody (Upstate Biotechnology, Inc., Lake Placid, N.Y.) for 1 hr. A Texas-red-conjugated IgG was used as a secondary antibody to reveal the positivity; staining with 4',6-diamidino-2-phenylindole (DAPI) was used to reveal nuclei.
Nuclei from separated blood and bone marrow mononuclear cells were isolated by lysis in buffer containing 10 mM Tris-HCl pH 6.5, 50 mM sodium bisulfite, 1% Triton X-100, 10 mM MgCl2, 8.6% sucrose and Dounce homogenization. Histones were isolated by acid extraction^74. Isolated histones ([…]) were then separated on 15% SDS-PAGE minigels (Bio-Rad, Hercules, Calif.) and transferred to nitrocellulose (Schleicher and Schuell, Keene, N.H.). Hyperacetylated histones were detected by antibodies that specifically recognize the hyperacetylated forms of histone H4 and histone H3 (Upstate Biotechnology) and were visualized by chemiluminescence (Pierce, Rockford, Ill.). As a control for the amount of protein loading, parallel gels were stained with Coomassie blue.

[12] = system: myelodysplasia, myeloid leukemia and solid tumors; details: human, in vivo; cited from earlier work
[13] = Trichostatin A alone (not shown)
[14] = retinoic acid 10^-6 M with Trichostatin A 150 nM, 36 hours

CC(=O)O[C@H]1C(=O)[C@@]2(C)[C@H]([C@H](OC(=O)c3ccccc3)[C@]3(O)C[C@H](OC(=O)[C@H](O)[C@@H](NC(=O)c4ccccc4)c4ccccc4)C(C)=C1C3(C)C)[C@]1(OC(C)=O)CO[C@@H]1C[C@@H]2O [Paclitaxel]
Response [1]: Progression

CC(/C=C/C(=O)NO)=C\[C@@H](C)C(=O)c1ccc(N(C)C)cc1 [Trichostatin A]
transcriptional effect [2, 13]: negligible transcriptional effects
transactivation of reporter / reversal of transcriptional repression [2, 14]: reverted the transcriptional repression
transcriptional effect [3, 13]: negligible transcriptional effects
transactivation of reporter / reversal of transcriptional repression [3, 14]: reverted the transcriptional repression
growth inhibition ([4]; Trichostatin A alone (5 ng/ml)): marked growth inhibitory effect
differentiation [5]: negligible differentiating effect

O=C(O)CCCc1ccccc1 [phenylbutyrate, sodium phenylbutyrate]
proliferation (NB4 cells [6]; phenylbutyrate 0.08 mM): no effect
proliferation (NB4 cells [6]; phenylbutyrate 0.4 mM): slight growth inhibition
proliferation (NB4 cells [6]; phenylbutyrate 2 mM): induced growth inhibition
proliferation (NB4 cells [6]; phenylbutyrate 10 mM): completely inhibited proliferation
apoptosis (NB4 cells [7]; phenylbutyrate 0.08 mM): no effect
apoptosis (NB4 cells [7]; phenylbutyrate 0.4 mM): no effects on other parameters
induction of apoptosis (NB4 cells [7]; phenylbutyrate 2 mM, 2 days): 15%
apoptosis (NB4 cells [7]; phenylbutyrate 10 mM): induced marked apoptosis
differentiation (NB4 cells [8]; phenylbutyrate 0.08 mM): no effect
differentiation (NB4 cells [8]; phenylbutyrate 0.4 mM): no effects on other parameters
differentiation (NB4 cells [8]; phenylbutyrate 2 mM): little effect upon differentiation
viable cells (NB4 cells [9]): no viable cells remained after 4 days of culture
clinical achievability of concentration ([10]; 10 mM): not clinically achievable
Cmax ([10]; human, plasma, 150 mg/kg, patient, intravenous infusion, read-out: peak plasma levels transiently attained after completing the drug infusion): ~2000 µM
magnitude of hyperacetylation (Western analysis) ([11]; 6 hours after starting the infusion): greatly diminished
acetylated histone H4 (immunofluorescence staining of nuclei) ([11]; peripheral blood cells, 6 hours after starting the infusion (approximately 4 hours after discontinuing the drug)): hyperacetylation was still visually evident
percentage of positive staining cells and staining intensity, acetylated histone H4 ([11]; peripheral blood mononuclear cells 0, 2, 4, 6 hours after infusion): progressively increases from baseline up to 6-hours
levels of acetylated H3 and H4 (Western blot) ([11]; peripheral blood mononuclear cells, two hours after beginning the phenylbutyrate infusion): markedly increased
clinical usefulness [12]: has not been clinically useful

CC1=C(/C=C/C(C)=C/C=C/C(C)=C/C(=O)O)C(C)(C)CCC1 [retinoic acid, all-trans-retinoic acid]
growth inhibition ([4]; retinoic acid 10^-7 M and 10^-6 M): little if no effects
growth inhibition ([4]; retinoic acid 10^-7 M and 10^-6 M, listed as Retinoic acid): minimal
